In ChEMBL document CHEMBL2449286, “Structure-activity data for a series of P-glycoprotein inhibitors (Supplementary Data to CHEMBL1142990)”:

target: ATP-dependent translocase ABCB1 (Homo sapiens, UniProt P08183)
Sequence (P08183 whole entry): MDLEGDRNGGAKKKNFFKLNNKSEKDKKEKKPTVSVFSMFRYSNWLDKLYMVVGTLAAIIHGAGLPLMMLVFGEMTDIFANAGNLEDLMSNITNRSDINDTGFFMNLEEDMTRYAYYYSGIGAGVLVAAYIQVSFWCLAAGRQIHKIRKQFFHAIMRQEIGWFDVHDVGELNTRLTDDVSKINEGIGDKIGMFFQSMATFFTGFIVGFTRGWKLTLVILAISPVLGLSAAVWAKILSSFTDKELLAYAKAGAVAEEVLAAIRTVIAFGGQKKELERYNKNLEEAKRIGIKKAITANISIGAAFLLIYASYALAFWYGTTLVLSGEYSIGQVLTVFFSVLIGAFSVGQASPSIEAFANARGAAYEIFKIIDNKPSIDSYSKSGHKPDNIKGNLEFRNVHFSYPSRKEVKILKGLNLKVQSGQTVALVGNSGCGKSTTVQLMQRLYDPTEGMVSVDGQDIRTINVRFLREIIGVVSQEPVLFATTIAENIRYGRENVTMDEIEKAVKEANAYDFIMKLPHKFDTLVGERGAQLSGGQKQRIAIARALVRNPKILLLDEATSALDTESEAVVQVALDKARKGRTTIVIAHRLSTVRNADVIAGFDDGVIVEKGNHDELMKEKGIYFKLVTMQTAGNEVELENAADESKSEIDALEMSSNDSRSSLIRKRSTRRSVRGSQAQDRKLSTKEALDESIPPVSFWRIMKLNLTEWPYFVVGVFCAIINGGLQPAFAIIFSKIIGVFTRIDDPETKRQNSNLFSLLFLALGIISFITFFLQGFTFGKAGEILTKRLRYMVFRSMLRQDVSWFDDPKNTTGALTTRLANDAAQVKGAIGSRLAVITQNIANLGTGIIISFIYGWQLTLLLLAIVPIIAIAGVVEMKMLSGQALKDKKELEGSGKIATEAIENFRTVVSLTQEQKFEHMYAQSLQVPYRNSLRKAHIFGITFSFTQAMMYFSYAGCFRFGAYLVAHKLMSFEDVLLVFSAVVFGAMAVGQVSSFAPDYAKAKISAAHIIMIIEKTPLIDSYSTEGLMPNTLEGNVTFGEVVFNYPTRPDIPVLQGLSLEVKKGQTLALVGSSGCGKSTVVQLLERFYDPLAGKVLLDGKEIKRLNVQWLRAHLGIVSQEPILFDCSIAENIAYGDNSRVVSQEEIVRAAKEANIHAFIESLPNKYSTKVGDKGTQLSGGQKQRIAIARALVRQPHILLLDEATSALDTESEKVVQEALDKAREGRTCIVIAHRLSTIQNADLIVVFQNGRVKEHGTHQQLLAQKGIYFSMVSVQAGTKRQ

Row | Structure (SMILES) | EC50 [µM]
1 | CCCNC[C@@H](O)COc1ccc(O)cc1C(=O)CCc1ccccc1 | 3.02
2 | O=C(CCc1ccccc1)c1cccc(OC[C@H](O)CN2CCCCC2)c1 | 0.427
3 | O=C(CCc1ccccc1)c1ccc(OC[C@H](O)CN2CCOCC2)cc1 | 6.92
4 | O=C(CCc1ccccc1)c1cccc(OC[C@H](O)CN2CCN(c3ccc(F)cc3)CC2)c1 | 1.12
5 | CO[C@H](CCc1ccccc1)c1ccccc1OC[C@H](O)CN(C(C)C)C(C)C | 0.661
6 | O=C(CCc1ccccc1)c1ccccc1OC[C@H](O)CNC(c1ccccc1)c1ccccc1 | 10.5
7 | O=C(CCc1cccc2ccccc12)c1ccccc1OC[C@H](O)CNCCC(c1ccccc1)c1ccccc1 | 0.724
8 | CO[C@H](CCc1ccccc1)c1ccccc1OC[C@H](O)CNCCC(c1ccccc1)c1ccccc1 | 0.759
9 | O[C@@H](COc1ccccc1[C@H](O)CCc1ccccc1)CN1CCOCC1 | 9.55
10 | CO[C@H](CCc1ccccc1)c1ccccc1OC[C@H](O)CN1CCOCC1 | 1.82
11 | CCCNC[C@@H](O)COc1ccc(OCc2ccccc2)cc1C(=O)CCc1ccccc1 | 0.11
12 | O=C(CCc1ccccc1)c1cc(OCc2ccccc2)ccc1OC[C@H](O)CN1CCCCC1 | 0.174
13 | O=C(CCc1ccccc1)c1cc(O)ccc1OC[C@H](O)CN1CCCCC1 | 1.74
14 | O=C(CCc1ccccc1)c1ccccc1OC[C@H](O)CNC1CCCCC1 | 0.339
15 | O=C(CCc1ccccc1)c1cc(O)ccc1OC[C@H](O)CN1CCN(Cc2ccccc2)CC1 | 0.525
16 | CC(C)(C)O[C@H](CCc1ccccc1)c1ccccc1OC[C@H](O)CN1CCCCC1 | 0.398
17 | O=C(c1ccccc1)c1ccccc1OC[C@H](O)CN1CCC(O)(c2ccccc2)CC1 | 0.309
18 | CC(=O)c1ccccc1OC[C@H](O)CN1CCC(Cc2ccccc2)CC1 | 0.355
19 | Cc1ccc(CCC(=O)c2ccccc2OC[C@H](O)CN2CCN(c3ccccc3C)CC2)cc1 | 0.0182
20 | COc1ccc(CCC(=O)c2ccccc2OC[C@H](O)CN2CCN(c3ccccc3C)CC2)cc1 | 0.0141
21 | CC(=O)O[C@@H](COc1ccccc1C(=O)CCc1ccccc1)CN1CCCCC1 | 0.339
22 | Cc1ccccc1N1CCN(C[C@@H](O)COc2ccc(Cl)cc2C(=O)CCc2ccccc2)CC1 | 0.0589
23 | COc1ccc(OC[C@H](O)CN2CCN(c3ccccc3C)CC2)c(C(=O)CCc2ccccc2)c1 | 0.178

Row | Structure (SMILES) | EC50 [µM]
24 | Cc1ccc(OC[C@H](O)CN2CCN(c3ccccc3C)CC2)c(C(=O)CCc2ccccc2)c1 | 0.0257
25 | O=C(CCc1ccccc1)c1ccccc1OC[C@H](O)CNc1ccc(C(F)(F)F)cc1 | 8.51
26 | O=C(CCc1ccccc1)c1ccccc1OC[C@H](O)CNc1ccc([N+](=O)[O-])cc1 | 2.57
27 | CC(C)N(C[C@@H](O)COc1ccccc1C(=O)CCc1cccc2ccccc12)C(C)C | 0.468
28 | CC(=O)c1cccc(OC[C@H](O)CN2CCCCC2)c1 | 9.12
29 | CC(=O)c1cccc(OC[C@H](O)CN2CCN(c3ccc(F)cc3)CC2)c1 | 10
30 | CC(=O)c1ccc(OC[C@H](O)CN2CCCCC2)cc1 | 49
31 | CCCNC[C@@H](O)COc1ccc(C)cc1C(=O)c1ccccc1 | 1.2
32 | Cc1ccccc1N1CCN(C[C@@H](O)COc2cc(Cl)c(Cl)cc2C(=O)CCc2ccccc2)CC1 | 0.017
33 | CC(C)(C)[C@@H](NC[C@@H](O)COc1ccccc1C(=O)CCc1ccccc1)c1ccccc1 | 0.295
34 | O=C1c2cccc(OC[C@H](O)CN3CCCCC3)c2C[C@H]1Cc1ccccc1 | 0.141
35 | O=C1c2c(cccc2OC[C@H](O)CN2CCOCC2)C[C@@H]1Cc1ccccc1 | 0.295
36 | O=C1C[C@H](CN2CCN(Cc3ccccc3)CC2)Oc2ccccc21 | 8.91
37 | C[C@H]1c2ccccc2O[C@H]1CN1CCCCC1 | 49
38 | Cc1cccc(N2CCN(C[C@@H](O)COc3ccc(C(=O)CCc4ccccc4)cc3)CC2)c1C | 0.229
39 | Cc1ccccc1N1CCN(C[C@@H](O)COc2ccccc2C(=O)CCc2ccc(N(C)C)cc2)CC1 | 0.0129
40 | COc1ccc(OC[C@H](O)CN2CCN(c3ccccc3C)CC2)c(C(C)=O)c1 | 0.851
41 | COc1ccc(C(=O)CCc2ccc(N(C)C)cc2)c(OC[C@H](O)CN2CCN(c3ccccc3C)CC2)c1 | 0.0398
42 | O=C(CCc1ccccc1)c1cccc(OC[C@H](O)CNCCC(c2ccccc2)c2ccccc2)c1 | 0.191
43 | O=C(CCc1ccccc1)c1ccc(OC[C@H](O)CNCCC(c2ccccc2)c2ccccc2)cc1 | 0.501
44 | CC(C)(C)OC(=O)N1CCN(C[C@@H](O)COc2ccccc2C(=O)c2ccccc2)CC1 | 0.871
45 | CC(=O)c1ccccc1OC[C@H](O)CN(C(C)C)C(C)C | 10
46 | Cc1ccccc1N1CCN(C[C@@H](O)COc2ccccc2[C@@H](O)CCc2ccccc2)CC1 | 0.0447

Continued by falling EC50, values first:

Row | EC50 [µM] | Structure (SMILES)
47 | 1260 | O=C1C[C@H](CN2CCOCC2)Oc2ccccc21
48 | 302 | CC(=O)c1ccc(OC[C@H](O)CN2CCOCC2)cc1
49 | 178 | O=C1C[C@H](CN2CCCCC2)Oc2ccccc21
50 | 129 | CC(=O)c1cccc(OC[C@H](O)CN2CCOCC2)c1
51 | 105 | C[C@H]1c2ccccc2O[C@H]1C(=O)N1CCCCC1
52 | 17.8 | O=C1C[C@H](CN2CCN(c3ccc(F)cc3)CC2)Oc2ccccc21
53 | 11.7 | CC(=O)c1ccc(OC[C@H](O)CN2CCN(c3ccc(F)cc3)CC2)cc1
54 | 11.2 | O=C1CCc2c(OC[C@H](O)CN3CCCCC3)cccc21
55 | 9.77 | O=C1CCc2cccc(OC[C@H](O)CN3CCCCC3)c21
56 | 6.61 | O=C([C@@H]1Oc2ccccc2[C@@H]1CCc1ccccc1)N1CCCCC1
57 | 6.46 | O=C(CCc1ccccc1)c1ccccc1OC[C@H](O)CNc1ccccc1
58 | 3.47 | O=C(CCc1ccccc1)c1cccc(OC[C@H](O)CN2CCOCC2)c1
59 | 3.16 | CC(=O)c1ccccc1OC[C@H](O)CN1CCC(O)(c2ccccc2)CC1
60 | 2.51 | O=C(CCc1ccccc1)c1ccc(OC[C@H](O)CN2CCN(c3ccc(F)cc3)CC2)cc1
61 | 2.04 | Cc1cccc(N2CCN(C[C@H]3CC(=O)c4ccccc4O3)CC2)c1C
62 | 1.82 | CN(CCN(C)S(=O)(=O)c1cccc2c(N(C)C)cccc12)C[C@@H](O)COc1ccccc1C(=O)c1ccccc1
63 | 1.74 | CC(C)N(C[C@@H](O)COc1ccccc1[C@H](O)CCc1ccccc1)C(C)C
64 | 1.7 | CCCN(C[C@@H](O)COc1ccccc1C(=O)CCc1ccccc1)C(=O)c1ccccc1
65 | 1.66 | CCC(=O)N(Cc1ccccc1)C[C@@H](O)COc1ccccc1C(=O)CCc1ccccc1
66 | 1.62 | c1ccc(CC[C@H]2c3ccccc3O[C@H]2CN2CCCCC2)cc1
67 | 1.55 | COC(=O)c1ccc(NC[C@@H](O)COc2ccccc2C(=O)CCc2ccccc2)cc1
68 | 1.55 | CC(=O)c1ccc(OC[C@H](O)CN2CCN(c3ccccc3C)CC2)cc1
69 | 1.05 | CC(C)N(C[C@@H](O)COc1ccc(O)cc1C(=O)CCc1ccccc1)C(C)C
70 | 0.912 | CC(C)N(C[C@@H](O)COc1ccc(C(=O)CCc2ccccc2)cc1)C(C)C
71 | 0.794 | O=C(CCc1ccccc1)c1ccccc1OC[C@H](O)CNCC(c1ccccc1)c1ccccc1
72 | 0.724 | O=C(CCc1ccccc1)c1ccccc1OC[C@H](O)CNCCC(c1ccccc1)c1ccccc1
73 | 0.724 | O=C(CCc1cccc2ccccc12)c1ccccc1OC[C@H](O)CN1CCOCC1
74 | 0.676 | O[C@@H](COc1ccccc1[C@H](O)CCc1ccccc1)CN1CCN(c2ccc(F)cc2)CC1

Row | EC50 [µM] | Structure (SMILES)
75 | 0.537 | CC(=O)c1cccc(OC[C@H](O)CN2CCN(c3ccccc3C)CC2)c1
76 | 0.457 | CC(C)O[C@H](CCc1ccccc1)c1ccccc1OC[C@H](O)CN1CCCCC1
77 | 0.389 | COc1ccc(N2CCN(C[C@@H](O)COc3cccc4c3C(=O)[C@@H](Cc3ccccc3)C4)CC2)cc1
78 | 0.38 | CC(=O)c1cccc(OC[C@H](O)CN2CCN(c3cccc(C)c3C)CC2)c1
79 | 0.302 | CCC(=O)c1ccccc1OC[C@H](O)CN1CCC(O)(c2ccccc2)CC1
80 | 0.295 | COc1ccc(C(=O)CCc2ccccc2)c(OC[C@H](O)CN2CCCCC2)c1
81 | 0.224 | CO[C@H](CCc1ccccc1)c1ccccc1OC[C@H](O)CN1CCN(c2ccc(F)cc2)CC1
82 | 0.214 | O=C1c2c(cccc2OC[C@H](O)CN2CCCCC2)C[C@@H]1Cc1ccccc1
83 | 0.209 | CC(C)[C@H](NC[C@@H](O)COc1ccccc1C(=O)CCc1ccccc1)c1ccccc1
84 | 0.186 | O[C@@H](COc1ccccc1[C@@H](O)CCc1ccccc1)CN1CCN(Cc2ccccc2)CC1
85 | 0.178 | CC(=O)c1ccc(OC[C@H](O)CNCCC(c2ccccc2)c2ccccc2)cc1
86 | 0.174 | O=C(CCc1cccc2ccccc12)c1ccccc1OC[C@H](O)CN1CCCCC1
87 | 0.166 | Cc1cccc(N2CCN(C[C@@H](O)COc3cccc4c3C(=O)[C@@H](Cc3ccccc3)C4)CC2)c1C
88 | 0.148 | O=C(c1ccccc1)c1ccccc1OC[C@H](O)CN1CCN(c2ccc(F)cc2)CC1
89 | 0.145 | O=C(CCc1ccccc1)c1ccccc1OC[C@H](O)CN[C@@H](c1ccccc1)C1CCCCC1
90 | 0.138 | Cc1cccc(N2CCN(C[C@@H](O)COc3cccc(C(=O)CCc4ccccc4)c3)CC2)c1C
91 | 0.129 | O=C(CCc1ccccc1)c1ccccc1OC[C@H](O)CN1CCN(C(=O)c2ccccc2)CC1
92 | 0.115 | O=C(CCc1ccccc1)c1cc(OCc2ccccc2)ccc1OC[C@H](O)CN1CCN(Cc2ccccc2)CC1
93 | 0.0851 | O=C(CCc1ccccc1)c1cc(OCc2ccccc2)ccc1OC[C@H](O)CN1CCC(O)(c2ccccc2)CC1
94 | 0.0813 | CC(C)N(C[C@@H](O)COc1ccc(OCc2ccccc2)cc1C(=O)CCc1ccccc1)C(C)C
95 | 0.0794 | CO[C@@H](CCc1ccccc1)c1ccccc1OC[C@H](O)CN1CCN(Cc2ccccc2)CC1
96 | 0.0759 | O=C(CCc1cccc2ccccc12)c1ccccc1OC[C@H](O)CN1CCC(O)(c2ccccc2)CC1
97 | 0.0741 | Cc1ccccc1N1CCN(C[C@@H](O)COc2cccc(C(=O)CCc3ccccc3)c2)CC1
98 | 0.038 | Cc1ccccc1N1CCN(C[C@@H](O)COc2ccccc2C(=O)CCc2ccc(Cl)c(Cl)c2)CC1
99 | 0.0363 | CO[C@@H](CCc1ccccc1)c1ccccc1OC[C@H](O)CN1CCN(c2ccccc2C)CC1
100 | 0.0309 | COc1ccc(C(=O)CCc2ccccc2)c(OC[C@H](O)CN2CCN(c3ccccc3C)CC2)c1
101 | 0.0191 | Cc1ccccc1N1CCN(C[C@@H](O)COc2ccccc2C(=O)CCc2ccc(Cl)cc2)CC1
